Conditions: 283.14 K, Liquid, Vibrating tube method

CCCCCCC(=O)OCC(COC(=O)CCCCCC)(COC(=O)CCCCCC)COC(=O)CCCCCC [pentaerythritol tetraheptanoate]
Conditions	mass density [kg/m3]
13797 kPa	993.7
13815 kPa	993.7
13832 kPa	993.7
13850 kPa	993.7
13872 kPa	993.7
13889 kPa	993.7
13907 kPa	993.7
13928 kPa	993.7
13946 kPa	993.7
13964 kPa	993.7
13985 kPa	993.7
14003 kPa	993.7
14021 kPa	993.7
14043 kPa	993.7
14061 kPa	993.8
14079 kPa	993.9
14098 kPa	993.8
14120 kPa	993.8
14138 kPa	993.9
14160 kPa	993.9
14178 kPa	993.9
14197 kPa	993.9
14216 kPa	993.8
14238 kPa	993.9
14256 kPa	993.9
14278 kPa	993.9
14297 kPa	993.9
14316 kPa	993.9
14339 kPa	994
14358 kPa	994
14377 kPa	993.9
14396 kPa	993.9
14419 kPa	993.9
14438 kPa	994
14458 kPa	994
14480 kPa	994
14500 kPa	994
14523 kPa	994
14542 kPa	994.1
14561 kPa	994
14585 kPa	994.1
14605 kPa	994.1
14625 kPa	994.1
14645 kPa	994
14668 kPa	994.1
14688 kPa	994.1
14708 kPa	994.1
14733 kPa	994.2
14752 kPa	994.2
14772 kPa	994.3
14797 kPa	994
14817 kPa	994.3
14838 kPa	994.2
14863 kPa	994.2
14884 kPa	994.2
14905 kPa	994.2
14926 kPa	994.3
14946 kPa	994.2
14971 kPa	994.3
14991 kPa	994.2
15016 kPa	994.3
15037 kPa	994.2
15057 kPa	994.4
15083 kPa	994.4
15104 kPa	994.4
15125 kPa	994.4
15151 kPa	994.5
15173 kPa	994.4
15194 kPa	994.3
15216 kPa	994.4
15242 kPa	994.5
15263 kPa	994.4
15285 kPa	994.5
15310 kPa	994.4
15332 kPa	994.4
15354 kPa	994.5
15567 kPa	994.5
15589 kPa	994.5
15616 kPa	994.6
15638 kPa	994.6
15661 kPa	994.7
15689 kPa	994.7
15711 kPa	994.7
15734 kPa	994.7
15762 kPa	994.7
15785 kPa	994.6
15808 kPa	994.8
15836 kPa	994.7
15860 kPa	994.8
15883 kPa	994.8
15911 kPa	994.9
15934 kPa	994.7
15958 kPa	994.8
15982 kPa	994.8
16010 kPa	994.9
16034 kPa	994.8
16062 kPa	995
16087 kPa	995
16111 kPa	994.9
16139 kPa	994.9
16164 kPa	994.9
16188 kPa	994.8
16212 kPa	994.9
16242 kPa	994.9
16266 kPa	995.1
16291 kPa	994.9
16321 kPa	994.9
16345 kPa	995
16375 kPa	995
16400 kPa	995
16425 kPa	995.1
16450 kPa	995.1
16481 kPa	995
16506 kPa	995.1
16531 kPa	995.1
16587 kPa	995.1
16617 kPa	995.2
16669 kPa	995.1
16725 kPa	995.2
16752 kPa	995.2
16779 kPa	995.3
16810 kPa	995.3
16836 kPa	995.2
16868 kPa	995.2
16894 kPa	995.4
16921 kPa	995.3
16953 kPa	995.3
16980 kPa	995.4
17007 kPa	995.4
17035 kPa	995.4
17068 kPa	995.4
17095 kPa	995.5
17124 kPa	995.4
17152 kPa	995.4
17180 kPa	995.5
17214 kPa	995.3
17241 kPa	995.5
17269 kPa	995.5
17363 kPa	995.5
17449 kPa	995.6
17484 kPa	995.7
17513 kPa	995.5
17543 kPa	995.7
17572 kPa	995.6
17607 kPa	995.7
17636 kPa	995.8
17666 kPa	995.6
17700 kPa	995.7
17729 kPa	995.8
17759 kPa	995.8
17794 kPa	995.8
17824 kPa	995.7
17854 kPa	995.8
17890 kPa	995.9
17920 kPa	995.8
17950 kPa	995.9
17986 kPa	995.8
18017 kPa	995.9
18048 kPa	996
18085 kPa	995.9
18116 kPa	995.9
18147 kPa	995.9
18184 kPa	995.9
18215 kPa	996
18247 kPa	996
18278 kPa	996
18316 kPa	995.9
18348 kPa	996
18380 kPa	996.1
18419 kPa	996.1
18450 kPa	996.2
18489 kPa	996.2
18522 kPa	996.1
18554 kPa	996.1
18586 kPa	996.1
18625 kPa	996.3
18658 kPa	996.3
18697 kPa	996.3
18731 kPa	996.2
18764 kPa	996.3
18805 kPa	996.3
18839 kPa	996.3
18873 kPa	996.3
18908 kPa	996.4
18950 kPa	996.4
18986 kPa	996.4
19030 kPa	996.4
19067 kPa	996.3
19105 kPa	996.5
19144 kPa	996.5
19165 kPa	996.5
19176 kPa	996.5
19199 kPa	996.5
19220 kPa	996.4
19241 kPa	996.6
19262 kPa	996.5
19288 kPa	996.7
19308 kPa	996.5
19333 kPa	996.6
19354 kPa	996.5
19376 kPa	996.7
19396 kPa	996.7
19422 kPa	996.6
19443 kPa	996.8
19465 kPa	996.7
19491 kPa	996.7
19512 kPa	996.7
19538 kPa	996.8
19560 kPa	996.7
19582 kPa	996.6
19604 kPa	996.8
19630 kPa	996.7
19652 kPa	996.7
19675 kPa	996.7
19697 kPa	996.7
19746 kPa	996.8
19769 kPa	996.8
19796 kPa	996.9
19818 kPa	996.8
19841 kPa	996.8
19863 kPa	996.9
19890 kPa	996.9
19912 kPa	996.9

From the NIST ThermoML archive (doi:10.1021/je060271a)
